The series in a line: gradient 5% acetonitrile 3 min, to 50% in 2 min, to 85% in 15 min, held 3 min, 100 µL/min. The conditions noted are these: column: Zorbax Extend-C18 2.1 x 50 mm; eluents: water / acetonitrile, 0.1% formic acid. In short, it runs like this:
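Data were gathered over 3 months by HPLC coupled to a quadrupole time-of-flight mass spectrometer, operated in positive and negative ionization mode. Mixtures of ~100 pure standards ran on a Zorbax Extend-C18 column (2.1 × 50 mm, 1.8 μm) at 100 μL/min, with water and acetonitrile each containing 0.1% formic acid and dead and dwell volumes of 40 μL and 900 μL. Retention time was read from adduct peaks picked by computer and checked manually.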
As for `CCc1cc(C(=O)NCCN2CCOCC2)nc2cc(-c3cccs3)nn12`, the RP-LC retention time is 670 s. `O=C(Nc1cccc(F)c1)N1CCN(c2cnn3c(C4CC4)nnc3c2)CC1` yielded an RP-LC retention time of 663 s. The same measure for `Cc1nc(-c2cn(C(C)C)c3ncccc23)sc1C(=O)Nc1ccc2c(c1)OCCO2`: 1010 s; for `Cc1ccc(C(=O)N2CCC(CCOCC3CC3)CC2)cn1`: 660 s. The same measure for `COc1ccccc1-c1cc2nc(C)cc(N3CCN(c4ccccn4)CC3)n2n1`: 580 s.

Compound `COC(=O)c1nnn(-c2ccc(Cl)cc2)c1C(=O)OC` yielded an RP-LC retention time of 908 s.

As for `Cc1ccc(CN2CC(Oc3ccc(-c4noc(-c5cccnc5)n4)cc3)C2)o1`, the RP-LC retention time worked out at 691 s. For `COc1cccc(CNC(=O)C2CCCN(C(=O)C3Sc4ccccc4NC3=O)C2)c1` (stereo not given) the value was 737 s; for `CCOC(=O)c1cc(C)nc2c1c(=O)n(Cc1ccccc1F)c(=O)n2C`, 1070 s; for `CCc1ccc(Nc2nc(C(=O)NCCN3CCCC3)nc3ccccc23)cc1`, 632 s. In the case of `O=C(CC1CCCCC1)N1CCN(c2cc(-c3ccc(Cl)cc3)[nH]n2)CC1`, the RP-LC retention time was 936 s. For `Cc1nnc([C@@H]2CC(F)(F)CN2C(=O)c2ccc3ccccc3n2)o1` the value was 756 s. The same measure for `CCCOc1ccc(C2NCCc3c2[nH]c2ccccc32)cc1OC` (stereo not given): 642 s; for `Cc1cccc(CN2C[C@@H]3C(=O)N(CCCN4CCCC4=O)C(=O)[C@@H]3C2)c1`: 589 s.

Compound `Cc1ccc2nc3c(c(C(=O)NC(C)C)c2c1)CCCC3` displayed an RP-LC retention time of 618 s. The same measure for `Cc1nc(N2CCN(CCO)CC2)nc2c1C(=O)CC(C)(C)C2`: 604 s; for `CSc1ccc(C2c3[nH]c4ccccc4c3CCN2C(=O)c2ccncc2)cc1` (stereo not given): 958 s; for `COc1ccccc1C(=O)N1CCc2ccccc2[C@H]1C`: 893 s.

`O=C(CN1CCN(Cc2cccc(Cl)c2)C1=O)NCCc1cccs1` came in with an RP-LC retention time of 823 s.

The compound `CCn1ccc(C(=O)N2CCC(c3nc4cccnc4n3CCOC)C2)n1` (stereo not given) returned an RP-LC retention time of 606 s. The same measure for `CCCn1cnc2cc(-c3noc(C4CC(=O)N(c5ccccc5)C4)n3)ccc21` (stereo not given): 711 s. For `CCCNC(=O)C1CCN(S(=O)(=O)c2cc(C(=O)N3CCCC3)n(C)c2)CC1` the value was 648 s; for `CNC(=O)[C@@H]1CN(C(=O)c2cncc(Br)c2)C[C@H]1COC`, 576 s.

`COC(=O)Cn1c(C2CC(=O)N(c3ccccc3C)C2)nc2ccccc21` (stereo not given) came in with an RP-LC retention time of 704 s. The same measure for `Cc1ccc(-c2ncc3c(=O)n(CC(=O)NC4CCCCCC4)c(=O)n(C)c3n2)cc1`: 1080 s; for `O=C1COc2ccc(S(=O)(=O)N3CCCC3C(=O)NCc3ccccc3Cl)cc2N1` (stereo not given): 784 s; for `Cc1ccccc1-c1noc(Cc2nnc(-c3cc(F)cc(F)c3)o2)n1`: 1090 s.

`Cc1cccc(Nc2nc(-c3ccc([N+](=O)[O-])cc3)cs2)c1` showed an RP-LC retention time of 1190 s. Compound `N#Cc1cccc(Cn2nc(-c3nc(-c4ccc(Cl)cc4)no3)ccc2=O)c1` showed an RP-LC retention time of 1100 s. The same measure for `COc1ccc(-c2csc3c(=O)n(CCOc4ccccc4)cnc23)cc1`: 1060 s.

In turn, `Cc1oc(-c2ccc(C(=O)NCCCN3CCCC3=O)cc2)nc1CN1CCc2ccccc21` showed an RP-LC retention time of 853 s. For `CNC(=O)c1noc([C@@H]2CC(F)(F)CN2C(=O)CCC2CCCC2)n1` the value was 848 s; for `CCOc1cc(C(=O)Nc2nc(-c3ccc4c(c3)NC(=O)CO4)c(C)s2)cc(OCC)c1OCC`, 1140 s; for `CCN(CC)c1nc2ccsc2c(=O)n1CCC(=O)NCCc1c[nH]c2ccccc12`, 822 s.

The compound `COc1cccc(C(=O)CC2(O)C(=O)Nc3ccc(C)cc32)c1` (stereo not given) returned an RP-LC retention time of 720 s. On to `Cc1cc2c(N3CCCC(C(=O)NCc4cccc(Cl)c4)C3)nccc2s1` (stereo not given), for which the RP-LC retention time came out at 713 s. `O=C(CC1CSc2ccccc2NC1=O)NC1CCCCCC1` (stereo not given) registered an RP-LC retention time of 822 s. The same measure for `Fc1cccc(-c2nc(-c3cn(-c4ccccc4)nn3)no2)c1`: 1040 s; for `COCCNC(=O)CCc1nc2ccccc2[nH]c1=O`: 591 s.

Compound `CCCC(NCc1ccc2c(c1)n(C)c(=O)n2C)c1ccccc1` (stereo not given) had an RP-LC retention time of 635 s. Take `O=C1CC(C(F)(F)F)c2c(c(C(=O)O)cn2-c2cccc(Br)c2)N1` (stereo not given): the RP-LC retention time stood at 795 s.

Consider `O=C(Nc1cc(F)ccc1F)Nc1cccn2cnnc12`, for which the RP-LC retention time is 727 s.

For `COc1ccccc1NC(=O)CSc1nc2c(-c3ccccc3)csc2c(=O)n1C`, the RP-LC retention time came out at 960 s.

Compound `CC1CCN(CCNc2ncccc2-c2nnc(-c3ccc(Cl)cc3)o2)CC1` had an RP-LC retention time of 813 s. The same measure for `Cc1ccc(Nc2ncccc2C(=O)O)cc1C`: 707 s; for `CCOC(=O)CNC(=O)N1CCCCCC1c1cccc(C)c1` (stereo not given): 931 s.

As to `O=C(c1ccc(Cn2cncn2)cc1)N1CCc2ccccc21`, the RP-LC retention time came out at 706 s.

With `Cc1cc(C)c(NC(=O)Cn2c(=O)cc(-c3nc(C)no3)c3ccccc32)c(C)c1`, the RP-LC retention time worked out at 895 s. With `N#Cc1ccc(C(=O)N2CCCC2c2nc(-c3ccccc3)no2)cc1` (stereo not given), the RP-LC retention time stood at 925 s. For `CCc1nc2ccccc2c(=O)n1Cc1noc(COc2ccc(OC)cc2)n1` the value was 921 s.

The compound `Cc1ccn2cc(-c3ccc(NC(=O)c4cccc(Br)c4)cc3)nc2n1` showed an RP-LC retention time of 692 s. For `CN(C(=O)Cn1ccc2c(=O)n(C)c(=O)n(C)c21)c1cccc(Cl)c1` the value was 709 s; for `CC(=O)O[C@]1(C(C)=O)CC[C@H]2[C@@H]3CCC4=CC(=O)CCC4=C3[C@@H](c3ccc(N(C)C)cc3)C[C@@]21C`, 874 s. In turn, `CCCn1c(=O)c(C)nc2cc(-c3noc(-c4ccc5c(c4)OCO5)n3)ccc21` displayed an RP-LC retention time of 1150 s. For `Cc1nn(C(C)C(=O)NCCCN2CCc3ccccc3C2)c(=O)c2c(C)n(-c3ccccc3)nc12` (stereo not given) the value was 690 s; for `Cc1ccc(NC(=O)C2CCCN(S(=O)(=O)c3c[nH]c(C(=O)N4CCCCCC4)c3)C2)cc1F` (stereo not given), 652 s; for `O=S(=O)(c1cc(-c2nnc(C3CC3)o2)co1)N1CCCC1`, 774 s. The same measure for `CCCN1C(=O)COc2ccc(-c3noc(-c4ccccc4)n3)cc21`: 1210 s. The same measure for `CCCN1C(=O)COc2ccc(-c3noc(COc4cccc(C)c4)n3)cc21`: 1170 s; for `CN(C)CCCN(C(=O)c1ccc(Br)s1)c1nc2c(F)cccc2s1`: 617 s. Take `O=c1c2c(CO)c(-c3ccccc3)nn2ccn1Cc1cccc(C(F)(F)F)c1`: the RP-LC retention time was 996 s. In turn, `C=CC1=C(C(=O)O)N2C(=O)[C@@H](NC(=O)/C(=N/OCC(=O)O)c3csc(N)n3)[C@H]2SC1` gave an RP-LC retention time of 644 s. For `CC1CCN(CCNC(=O)c2nnc(-c3ccc(S(=O)(=O)N(C)C)cc3)o2)CC1` the value was 606 s. For `CCC(C)NC(=O)c1cc(-c2ccc(Cl)cc2)[nH]c1C` (stereo not given) the value was 923 s; for `COc1ccc(CCC(=O)Nc2c(C(=O)N3CCN(c4ccccn4)CC3)oc3ccccc23)cc1`, 834 s; for `COCCC1CCN(C(=O)CN(C)C(=O)c2ccsc2)CC1`, 655 s. The same measure for `Cc1ccc(N2CCC(NC(=O)Nc3cccc(C)c3C)C2=O)cc1C` (stereo not given): 906 s; for `CCCNC(=O)NC1CCN(c2nc3ccccc3n(C)c2=O)CC1`: 715 s. In the case of `Cc1cc(S(=O)(=O)[C@H]2CS(=O)(=O)C[C@@H]2N2CCN(Cc3ccccc3)CC2)ccc1F`, the RP-LC retention time came to 678 s.

`CCOC(=O)C1=C(CNc2ccc(C)c(Cl)c2)NC(=O)NC1c1ccc2c(c1)OCO2` (stereo not given): the RP-LC retention time turned out to be 897 s. With `CC1CCN(C(=O)c2ccc(OCC3CCCN(C(=O)c4ccc(C#N)cc4)C3)cc2)CC1` (stereo not given), the RP-LC retention time amounted to 956 s.

Regarding `CCn1c(=O)c(C(=O)NC(C)C)nc2cc(C)c(C)cc21`, the RP-LC retention time was found to be 803 s. On to `COc1ccc(-c2ccc(=O)n(Cc3nc(-c4ccc(Br)cc4)no3)n2)cc1`, for which the RP-LC retention time stood at 1040 s.

For `O=C(Cn1cccc1-c1nnc(C2CC2)o1)N1CCN(c2ccccc2F)CC1`, the RP-LC retention time stood at 872 s.

Regarding `CC1CCN(c2nc(NCCN3CCOCC3)nc(N3CC4CC(C3)c3cccc(=O)n3C4)n2)CC1` (stereo not given), the RP-LC retention time is 555 s. For `CCC(=O)N1CCC2(C1)C(=O)N(C)c1ccc(OC)cc12` (stereo not given) the value was 652 s; for `CC(=O)c1ccc(NC(=O)Cn2cnc3nc4c(cc3c2=O)CC(C)CC4)cc1` (stereo not given), 738 s; for `Cc1ccc(CNc2c(-c3ccc(C)c(C)c3)nc3ncccn23)cc1`, 834 s.

The compound `Cc1ccc(Cn2nnc(-c3noc(C)n3)c2C)cc1` returned an RP-LC retention time of 860 s. For `O=C(NCCc1c[nH]c2ccccc12)c1nnc2n(c1=O)CCN2c1ccc(F)cc1` the value was 692 s.

Values taken from the METLIN SMRT retention time set (Domingo-Almenara et al. 2019).
